The record followed here is patent US20250026733A1, “DEUTERATED ANALOGS OF PYROLE INHIBITORS OF ERK, SYNTHESIS THEREOF AND INTERMEDIATES THERETO” (BIOMED VALLEY DISCOVERIES, INC., priority 2022, published 2025).

One may read the IC50 as the concentration at which inhibition is half-maximal.

One series deals with CYP2B6 mRNA expression. Kind of series: In-vitro CYP induction study, CYP2B6 mRNA in cultured human hepatocytes. As to conditions: 20 μM, approximately 24 h.
For the next series, the target named is T1, CYP2D6 (Homo sapiens, UniProt P10635).
T1 construct: from tissue; host or cells: human liver microsomes, mixed-gender pool of 200
T1 sequence (P10635 whole entry): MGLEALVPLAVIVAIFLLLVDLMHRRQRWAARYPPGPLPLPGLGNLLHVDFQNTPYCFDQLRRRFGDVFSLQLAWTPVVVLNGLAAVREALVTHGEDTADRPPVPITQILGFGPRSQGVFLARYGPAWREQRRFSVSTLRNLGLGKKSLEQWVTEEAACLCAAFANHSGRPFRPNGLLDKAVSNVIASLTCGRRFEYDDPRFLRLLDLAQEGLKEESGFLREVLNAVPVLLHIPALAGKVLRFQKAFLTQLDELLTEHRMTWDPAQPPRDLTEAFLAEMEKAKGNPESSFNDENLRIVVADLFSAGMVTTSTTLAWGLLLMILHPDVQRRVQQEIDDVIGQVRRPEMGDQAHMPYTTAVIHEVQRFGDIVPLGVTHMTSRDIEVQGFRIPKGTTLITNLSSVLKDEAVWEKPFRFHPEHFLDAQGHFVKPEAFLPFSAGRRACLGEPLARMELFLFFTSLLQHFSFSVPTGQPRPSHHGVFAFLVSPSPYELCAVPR
Nature of the series: In-vitro CYP inhibition study, CYP2D6. The series is classed as in vitro ADME. The following applies: human liver microsomes, substrate Dextramethorphan (10 μM). The procedure: (§1) Incubations were conducted using a cocktail of seven prototypical CYP substrates to ascertain the potential of each test article to inhibit the metabolism of concomitantly administered drugs. A mixed-gender pool of 200 human liver microsomal samples was used for this study. Incubations were conducted at approximately 37° C. in 200 μL incubation mixtures (pH 7.4) containing water, potassium phosphate buffer (50 mM), MgCl2 (3 mM), EDTA (1 mM), an NADPH regenerating system (NADP [1 mM], glucose 6 phosphate [5 mM], glucose 6 phosphate dehydrogenase [1 Unit/mL]), and probe substrate (i.e., a seven substrate cocktail) at the final concentrations indicated in Table 9. Reactions were initiated by the addition of NADPH-regenerating system and were automatically terminated at approximately 5 minutes by the addition of internal standard mixed in stop reagent, acetonitrile. The samples were centrifuged at 920×g for 10 minutes at 10° C. The supernatant fractions were analyzed by LC-MS/MS. To examine its ability to act as a time-dependent inhibitor of CYP enzymes, each test article (at the same concentrations used to evaluate direct inhibition, (i.e. 0, 0.02, 0.06, 0.2, 0.6, 2, 6, 20 μM) was pre-incubated at 37±2° C. with NADPH-fortified human liver microsomes for approximately 30 minutes. The pre-incubations were initiated by the addition of NADPH-regenerating system. After 30 min, probe substrate incubations were initiated by the addition of probe substrate cocktail. Incubations were terminated and samples were analyzed by LC-MS/MS. When inhibition was observed, the data were processed with a LIMS for the determination of IC50 values by utilizing the Levenberg-Marquardt algorithm to perform non-linear regression fitting of the data to the following 4-parameter sigmoidal-logistic IC50 equation:
(§2) As percent of control values are utilized, the minimum value (Min) is set to zero and the maximum value (Max) is set to 100 (or other values, as appropriate). The LIMS calculates an IC50 value only when it lies within the concentration range of the inhibitor studied. Therefore, when an IC50 value falls outside the concentration range studied, the IC50 values are reported to be greater than the highest concentration of the test article evaluated.

A further series addresses T2, CYP2B6 (Homo sapiens, UniProt P20813).
T2 construct: from tissue; host or cells: human liver microsomes, mixed-gender pool of 200
T2 sequence (P20813 1-491): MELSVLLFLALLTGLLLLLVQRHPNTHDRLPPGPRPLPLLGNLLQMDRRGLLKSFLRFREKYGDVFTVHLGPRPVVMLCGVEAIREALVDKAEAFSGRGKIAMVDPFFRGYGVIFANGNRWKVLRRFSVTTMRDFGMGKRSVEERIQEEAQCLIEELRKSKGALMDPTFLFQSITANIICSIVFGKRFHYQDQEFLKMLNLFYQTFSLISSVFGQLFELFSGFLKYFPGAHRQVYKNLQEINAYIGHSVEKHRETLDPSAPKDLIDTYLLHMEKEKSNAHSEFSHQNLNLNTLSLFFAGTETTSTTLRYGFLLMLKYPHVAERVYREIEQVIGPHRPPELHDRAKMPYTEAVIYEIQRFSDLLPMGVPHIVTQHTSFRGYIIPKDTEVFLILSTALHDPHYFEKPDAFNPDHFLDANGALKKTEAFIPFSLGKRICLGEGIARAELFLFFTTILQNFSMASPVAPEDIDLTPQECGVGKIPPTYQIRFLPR
Nature of the series: In-vitro CYP inhibition study, CYP2B6. The series is classed as in vitro ADME. The following applies: human liver microsomes, substrate Bupropion (90 μM). The procedure: as §1, §2
On the technique in general: Microsomes from liver hold many membrane-bound enzymes, among them those of drug oxidation.

A further series deals with CYP3A4 mRNA expression. Kind of series: In-vitro CYP induction study, CYP3A4 mRNA in cultured human hepatocytes. As to conditions: 20 μM, approximately 24 h.
The test system of series [1] is phospho-ERK1/2 to total ERK1/2 in A375 cells. Nature of the series: A375 pERK/ERK dose response study (MSD). The series is classed as cell-based. As to conditions: Homo sapiens, A-375, ratio of phospho-ERK1/2 to total ERK1/2. The protocol:
A375 pERK/ERK Dose Response Study:
Briefly, A375 cells were plated at 30,000 cells/well in 2×96 well plates, allowed to recover overnight, washed and fed fresh media the next day then treated with a dose response of the selected compounds. Following the determined pretreatment time with the compounds at 37° C./5% CO2, the media was aspirated, and cells lysed with cold, complete MESO Scale Discovery (MSD) lysis buffer. pERK and total ERK1/2 levels were measured using MESO Scale Discover Phospho(Thr202/Tyr204; Thr185/Tyr187)/Total ERK1/2 kits. The protocol and all reagents were provided in the kit. All wells were blocked with 150 μl Blocking Solution for one hour. […] of lysis buffer was added per well and incubated overnight at 4° C. Following the overnight incubation, the wells were washed three times with Tris Wash buffer, then […] of 1× Detection Antibody was added per well and incubated at room temperature for one hour with vigorous shaking. All wells were then washed three times with Tris Wash Buffer before 150 μl of 1× Read Buffer was added per well and the plates read using the MSD Sector Imager. Data were calculated as a ratio of phospho-ERK1/2 to total ERK1/2 to allow for normalization of the samples.

A further series deals with CYP1A2 mRNA expression. Kind of series: In-vitro CYP induction study, CYP1A2 mRNA in cultured human hepatocytes. As to conditions: approximately 24 h.
A further series addresses T3, CYP2C9 (Homo sapiens, UniProt P11712).
T3 construct: from tissue; host or cells: human liver microsomes, mixed-gender pool of 200
Kind of series: In-vitro CYP inhibition study, CYP2C9. The series is classed as in vitro ADME. As to conditions: human liver microsomes, substrate Diclofenac (12 μM). The protocol: as §1, §2

A further series has as its target T4, CYP2C19 (Homo sapiens, UniProt P33261).
T4 construct: from tissue; host or cells: human liver microsomes, mixed-gender pool of 200
Nature of the series: In-vitro CYP inhibition study, CYP2C19. The series is classed as in vitro ADME. The following applies: human liver microsomes, substrate S-Mephenytoin (60 μM). The procedure: as §1, §2

Some results are limits rather than exact numbers.

T3 sequence (P11712 whole entry): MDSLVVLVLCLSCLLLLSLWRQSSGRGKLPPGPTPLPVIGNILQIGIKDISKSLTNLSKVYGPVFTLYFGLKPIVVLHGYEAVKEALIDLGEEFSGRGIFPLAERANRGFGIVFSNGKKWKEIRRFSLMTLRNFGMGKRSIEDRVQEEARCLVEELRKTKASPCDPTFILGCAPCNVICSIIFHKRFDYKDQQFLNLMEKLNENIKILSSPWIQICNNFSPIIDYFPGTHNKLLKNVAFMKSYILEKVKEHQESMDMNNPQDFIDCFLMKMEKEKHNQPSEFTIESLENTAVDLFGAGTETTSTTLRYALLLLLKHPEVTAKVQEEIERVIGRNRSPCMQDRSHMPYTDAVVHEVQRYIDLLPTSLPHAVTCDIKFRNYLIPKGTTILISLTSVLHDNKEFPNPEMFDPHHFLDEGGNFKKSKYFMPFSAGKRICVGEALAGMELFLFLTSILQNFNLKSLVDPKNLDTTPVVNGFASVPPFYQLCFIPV
T4 sequence (P33261 whole entry): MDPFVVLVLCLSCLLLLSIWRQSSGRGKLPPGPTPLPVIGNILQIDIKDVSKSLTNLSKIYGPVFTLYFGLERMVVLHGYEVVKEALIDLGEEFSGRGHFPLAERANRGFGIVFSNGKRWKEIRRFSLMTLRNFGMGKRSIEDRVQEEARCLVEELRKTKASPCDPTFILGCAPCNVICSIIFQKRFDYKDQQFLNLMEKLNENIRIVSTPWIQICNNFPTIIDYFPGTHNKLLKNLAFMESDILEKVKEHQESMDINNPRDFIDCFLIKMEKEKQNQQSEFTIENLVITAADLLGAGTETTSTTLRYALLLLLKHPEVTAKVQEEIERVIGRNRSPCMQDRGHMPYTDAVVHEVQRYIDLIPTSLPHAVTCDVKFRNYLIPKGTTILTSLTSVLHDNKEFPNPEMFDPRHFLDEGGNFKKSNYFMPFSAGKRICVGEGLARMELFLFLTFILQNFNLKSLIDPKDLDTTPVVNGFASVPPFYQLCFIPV
Experimental for CYP1A2 mRNA expression: (§3) A single preparation of characterized cryopreserved human hepatocytes isolated from non-transplantable human livers was treated in this study. Triplicate wells for each of the cultures were treated in 48-well plates with supplemented MCM (37±2° C.) containing 0.1% v/v DMSO (solvent control), one of three concentrations of each test article (1, 10 and 20 μM) or positive control CYP enzyme inducers omeprazole (50 μM), phenobarbital (1000 μM) or rifampin (20 μM). The cultures were incubated in a humidified culture chamber (37±2° C. at 95% relative humidity, 95/5% air/CO2). Approximately 24 h after treatment, hepatocytes were lysed in Buffer RLT reagent containing β-mercaptoethanol (100:1). The medium was aspirated, and Buffer RLT was added to each well. The cell lysates were prepared by repeated pipetting and shaking. Total RNA was isolated using the RNeasy Mini Kit. RNA quality and concentration were determined by measuring absorbance at 260 and 280 nm on a plate reader. Single-stranded cDNA was prepared from RNA with the RT Master Mix. The RT Master Mix comprises 10×RT buffer, 25× deoxyNTPs, 10× Random primers, RNase Inhibitor (20 U/μL), MultiScribe reverse transcriptase (50 U/μL) and RNase-free water. The RT Master Mix was added to each RNA sample to complete the components of the reaction. No template controls (NTCs) were included in the analysis. For the NTC reactions, RNase-free water was added in place of the RNA sample. The prepared cDNA samples were stored at −20±5° C. following analysis by qRT-PCR. Each PCR was performed in quadruplicate. A Primer Mix was prepared for each Gene Expression assay. A typical Primer Mix contained TaqMan Fast Advanced Master Mix (1×), Gene Expression Assay (1×, 900 nM forward and reverse primers) and RNase-free water. The Reaction Mix was prepared by adding the Primer Mix to cDNA. A percentage of samples (no less than 10%) included NAC (no amplification control) samples. […] Reactions were analyzed on a PCR sequence detection system. The relative quantity of the target cDNA compared with that of the control cDNA (GAPDH) was determined by the ΔΔCt method. Relative quantitation measures the change in mRNA expression in a test sample relative to that in a control sample (e.g., DMSO). This method assumes that the efficiency of the target amplification and the efficiency of the endogenous control amplification are approximately equal.
Experimental for CYP2B6 mRNA expression: as §3
Experimental for CYP3A4 mRNA expression: as §3

`[2H]C([2H])([2H])C([2H])(Nc1cc(-c2c[nH]c(C(=O)N[C@H](CO)c3cccc(Cl)c3)c2)c(Cl)cn1)C([2H])([2H])[2H]` [Formula 18, 4-(5-chloro-2-((propan-2-yl-d7)amino)pyridin-4-yl)-N-(1-(3-chlorophenyl)-2-hydroxyethyl)-1H-pyrrole-2-carboxamide]: the “Fold Change in mRNA Expression of CYP2B6” value with CYP2B6 mRNA expression was found to be 2.54 fold. Further, the IC50 on CYP2D6 (preincubation 0 min) was more than 20 µM; against CYP2D6 (preincubation 30 min) it was 19 µM; against CYP2B6 (preincubation 0 min), 12 µM; against CYP2B6 (preincubation 30 min), 16 µM; in series [1], 0.07 µM; against CYP2C9 (preincubation 0 min), 3.5 µM. For the same compound, the IC50 was 3.9 µM on CYP2C9 (preincubation 30 min), 9.6 µM against CYP2C19 (preincubation 0 min) and 11 µM at CYP2C19 (preincubation 30 min). Besides, the “Fold Change in mRNA Expression of CYP3A4” value in the series on CYP3A4 mRNA expression came out at 7.06 fold. In addition, the “Fold Change in mRNA Expression of CYP1A2” value with CYP1A2 mRNA expression (20 μM) is reported as 7.56 fold.

For `[2H]C([2H])([2H])C(Nc1cc(-c2c[nH]c(C(=O)N[C@H](CO)c3cccc(Cl)c3)c2)c(Cl)cn1)C([2H])([2H])[2H]` [Formula 19, 4-(5-chloro-2-((propan-2-yl-1,1,1,3,3,3-d6)amino)pyridin-4-yl)-N-(1-(3-chiorophenyl)-2-hydroxyethyl)-1H-pyrrole-2-carboxamide], the “Fold Change in mRNA Expression of CYP2B6” value with CYP2B6 mRNA expression is on record as 2.44 fold. At CYP2D6 (both sexes, human, pH 7.4, probe Dextramethorphan (10 μM), preincubation 0 min), this compound yielded an IC50 at 5 min of 20 µM. For the same compound, the IC50 at CYP2D6 (preincubation 30 min) is more than 20 µM; against CYP2B6 (preincubation 0 min), 14 µM; against CYP2B6 (preincubation 30 min), 16 µM; against CYP2C9 (preincubation 0 min), 3.1 µM; at CYP2C9 (preincubation 30 min), 4.3 µM; at CYP2C19 (preincubation 0 min), 10 µM. Besides, inhibition against CYP2C19 (preincubation 30 min) was half-maximal at 12 µM (IC50). The “Fold Change in mRNA Expression of CYP3A4” value with CYP3A4 mRNA expression is 11.7 fold. Moreover, the “Fold Change in mRNA Expression of CYP1A2” value in the series with CYP1A2 mRNA expression (10 μM) was 12.1 fold.

Turning to `Cl.[2H]C(C)(C)Nc1cc(-c2c[nH]c(C(=O)N[C@H](CO)c3cccc(Cl)c3)c2)c(Cl)cn1` [Formula 21A], the “Fold Change in mRNA Expression of CYP2B6” value in the series with CYP2B6 mRNA expression turned out to be 2.22 fold. For the same compound, the IC50 against CYP2D6 (preincubation 0 min) was more than 20 µM; at CYP2D6 (preincubation 30 min), more than 20 µM; against CYP2B6 (preincubation 0 min), 17 µM; on CYP2B6 (preincubation 30 min), 19 µM; on CYP2C9 (preincubation 0 min), 3.4 µM; against CYP2C9 (preincubation 30 min), 4.4 µM. Also, the IC50 against CYP2C19 (preincubation 0 min) and against CYP2C19 (preincubation 30 min) was 19 µM each time. Moreover, the “Fold Change in mRNA Expression of CYP3A4” value with CYP3A4 mRNA expression was found to be 6.86 fold. Also, the “Fold Change in mRNA Expression of CYP1A2” value in the series with CYP1A2 mRNA expression (1 μM) is 2.22 fold; with CYP1A2 mRNA expression (10 μM), 8.51 fold.

Turning to `CC(C)Nc1cc(-c2c[nH]c(C(=O)N[C@H](CO)c3cccc(Cl)c3)c2)c(Cl)cn1` [Ulixertinib, reference compound], in the series on CYP2B6 mRNA expression, the “Fold Change in mRNA Expression of CYP2B6” value is recorded as 2.43 fold. The concentration for half-maximal inhibition (IC50) on CYP2D6 (preincubation 0 min) is more than 20 µM; on CYP2D6 (preincubation 30 min) it was 18 µM; against CYP2B6 (preincubation 0 min), 11 µM; at CYP2B6 (preincubation 30 min), 16 µM; in series [1] it was 0.058 µM; against CYP2C9 (preincubation 0 min), 3.1 µM. The half-inhibitory concentration (IC50) against CYP2C9 (preincubation 30 min) turned out to be 3.4 µM; against CYP2C19 (preincubation 0 min), 8.5 µM; against CYP2C19 (preincubation 30 min) it was 9.2 µM. Moreover, the “Fold Change in mRNA Expression of CYP3A4” value with CYP3A4 mRNA expression stood at 8.26 fold. In addition, in the series on CYP1A2 mRNA expression (10 μM), the “Fold Change in mRNA Expression of CYP1A2” value is recorded as 6.63 fold.
